Data published in patent US8263606B2 (Xenon Pharmaceuticals Inc., priority 2008, dated 2012).
pIC50: −log10 of the molar value.

What was measured:
sodium channel = experiment: Guanidine influx assay (14C-guanidine radiotracer flux, in vitro); type: cell-based, human or rat; conditions: guanidine influx assay using a known cell line that expresses a sodium channel; activity level class
Source text: This example describes an in vitro assay for testing and profiling test agents against human or rat sodium channels stably expressed in cells of either an endogenous or recombinant origin. The assay is also useful for determining the IC50 of a sodium channel blocking compound. The assay is based on the guanidine flux assay described by Reddy, N. L., et al., J. Med. Chem. (1998), 41(17):3298-302.
The guanidine influx assay is a radiotracer flux assay used to determine ion flux activity of sodium channels in a high-throughput microplate-based format. The assay uses ^14C-guanidine hydrochloride in combination with various known sodium channel modulators, to assay the potency of test agents. Potency is determined by an IC50 calculation. Selectivity is determined by comparing potency of the compound for the channel of interest to its potency against other sodium channels (also called ‘selectivity profiling’).
Each of the test agents is assayed against cells that express the channels of interest. Voltage gated sodium channels are either TTX sensitive or insensitive. This property is useful when evaluating the activities of a channel of interest when it resides in a mixed population with other sodium channels. The following Table 1 summarizes cell lines useful in screening for a certain channel activity in the presence or absence of TTX.
It is also possible to employ recombinant cells expressing these sodium channels. Cloning and propagation of recombinant cells are known to those skilled in the art (see, for example, Klugbauer, N, et al., EMBO J. (1995), 14(6):1084-90; and Lossin, C., et al., Neuron (2002), 34, pp. 877-884).
Cells expressing the channel of interest are grown according to the supplier or in the case of a recombinant cell in the presence of selective growth media such as G418 (Gibco/Invitrogen). The cells are disassociated from the culture dishes with an enzymatic solution (Ix) Trypsin/EDTA (Gibco/Invitrogen) and analyzed for density and viability using haemocytometer (Neubauer). Disassociated cells are washed and resuspended in their culture media then plated into Scintiplates (Beckman Coulter Inc.) (approximately 100,000 cells/well) and incubated at 37° C./5% CO2 for 20-24 hours. After an extensive wash with Low sodium HEPES-buffered saline solution (LNHBSS) (150 mM Choline Chloride, […] (Sigma), 1 mM Calcium Chloride, 5 mM Potassium Chloride, 1 mM Magnesium Chloride, 10 mM Glucose) agents diluted with LNHBSS are added to each well. (Varying concentrations of test agent may be used). The activation/radiolabel mixture contains aconitine (Sigma) to increase the percentage of time that the sodium channels are open, and ^14C-guanidine hydrochloride (ARC) to measure flux through the voltage-gated sodium channels.
After loading the cells with test agent and activation/radiolabel mixture, the Scintiplates are incubated at ambient temperature. Following the incubation, the Scintplates are extensively washed with LNHBSS supplemented with guanidine (Sigma). The Scintiplates are dried and then counted using a Wallac MicroBeta TriLux (Perkin-Elmer Life Sciences). The ability of the test agent to block sodium channel activity is determined by comparing the amount of ^14C-guanidine present inside the cells expressing the different sodium channels.
The IC50 value of a test agent for a specific sodium channel may be determined using the above general method. […] Typically the mid-point concentration of test agent is set at 1 μM, and sequential concentrations of half dilutions greater or smaller are applied (e.g. 0.5 μM; 5 μM and 0.25 μM; 10 μM and 0.125 μM; 20 μM etc.). The IC50 curve is calculated using the 4 Parameter Logistic Model or Sigmoidal Dose-Response Model formula (fit=(A+((B−A)/(1+((C/x)^D)))).
The fold selectivity, factor of selectivity or multiple of selectivity, is calculated by dividing the IC50 value of the test sodium channel by the reference sodium channel, for example, Nav1.5. […]

CYP3A4 = CYP3A4 (Homo sapiens, UniProt P08684); experiment: Cytochrome P450 (CYP450) Inhibition Assay, CYP3A4 (Vivid fluorescence, BOMCC substrate); conditions: human, P450 Baculosomes (recombinant CYP3A4), probe BOMCC (Vivid substrate)
Chain of CYP3A4 (P08684 whole entry): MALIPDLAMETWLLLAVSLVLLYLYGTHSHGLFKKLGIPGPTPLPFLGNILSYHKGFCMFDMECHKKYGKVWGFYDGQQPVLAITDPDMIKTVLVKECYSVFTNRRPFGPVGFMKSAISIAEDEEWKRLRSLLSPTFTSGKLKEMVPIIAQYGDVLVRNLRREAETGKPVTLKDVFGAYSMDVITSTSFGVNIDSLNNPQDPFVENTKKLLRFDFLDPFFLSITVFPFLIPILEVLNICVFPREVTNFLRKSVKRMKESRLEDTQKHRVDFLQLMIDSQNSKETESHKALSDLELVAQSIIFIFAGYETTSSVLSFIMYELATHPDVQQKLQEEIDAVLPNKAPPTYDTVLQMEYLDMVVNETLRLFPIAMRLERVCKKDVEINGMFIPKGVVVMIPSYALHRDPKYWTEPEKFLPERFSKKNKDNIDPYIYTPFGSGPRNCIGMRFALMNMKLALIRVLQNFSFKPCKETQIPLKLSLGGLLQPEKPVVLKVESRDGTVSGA

SMILES	pIC50 (sodium channel)	inhibition at 10 µM (CYP3A4) [%]
O=C1N(Cc2ncccc2C(F)(F)F)c2ccccc2C12COc1cc3c(cc12)OCCC3 (stereo not drawn) [Example 5.29, 1-{[3-(trifluoromethyl)pyridin-2-yl]methyl}-7,8-dihydro-6H-spiro[furo[2,3-g]chromene-3,3′-indol]-2′(1′H)-one]	6.00 to 7.00	< 50
O=C1N(Cc2ccccn2)c2ccccc2C12COc1cc3c(cc12)S(=O)(=O)C=C3 (stereo not drawn) [Example 5.31, 1-(pyridin-2-ylmethyl)spiro[indole-3,3′-thieno[2,3-f][1]benzofuran]-2(1′H)-one 5,5′-dioxide]	5.00 to 6.00	< 50
Cc1cc2c(cc1C)C1(CO2)C(=O)N(CC2CCCCO2)c2ccccc21 (stereo not drawn) [Example 6.2, 5,6-dimethyl-1′-(tetrahydro-2H-pyran-2-ylmethyl)spiro[1-benzofuran-3,3′-indol]-2′(1′H)-one]	6.00 to 7.00	> 50
O=C1N(Cc2cccc([N+](=O)[O-])c2)c2ccccc2C12COc1cc3c(cc12)OCCO3 (stereo not drawn) [Example 7.10]	7.00 to 9.00	< 50
O=C1N(Cc2ccc(C(F)(F)F)cn2)c2ccccc2C12COc1cc3c(cc12)OCCO3 (stereo not drawn) [Example 7.12]	7.00 to 9.00	> 50
O=C1N(Cc2cc(-c3cccnc3)no2)c2ccccc2C12COc1cc3c(cc12)OCCO3 (stereo not drawn) [Example 7.14]	7.00 to 9.00	> 50
O=C1N(Cc2cccc(S(=O)(=O)N3CCOCC3)c2)c2ccccc2C12COc1cc3c(cc12)OCCO3 (stereo not drawn) [Example 7.17, 1′-[3-(morpholin-4-ylsulfonyl)benzyl]-2,3-dihydrospiro[furo[2,3-g][1,4]benzodioxine-8,3′-indol]-2′(1′H)-one]	5.00 to 6.00	> 50
Cc1nonc1CN1C(=O)C2(COc3cc4c(cc32)OCCO4)c2ccccc21 (stereo not drawn) [Example 7.18, 1′-[(4-methyl-1,2,5-oxadiazol-3-yl)methyl]-2,3-dihydrospiro[furo[2,3-g][1,4]benzodioxine-8,3′-indol]-2′(1′H)-one]	7.00 to 9.00	< 50
O=C1N(Cc2cccc(F)c2F)c2ccccc2C12COc1cc3c(cc12)OCCO3 (stereo not drawn) [Example 7.19, 1-(2,3-difluorobenzyl)-2,3-dihydrospiro[furo[2,3-g][1,4]benzodioxine-8,3′-indol]-2′(1′H)-one]	7.00 to 9.00	> 50
O=C1N(Cc2cc(F)cc(F)c2)c2ccccc2C12COc1cc3c(cc12)OCCO3 (stereo not drawn) [Example 7.20, 1′-(3,5-difluorobenzyl)-2,3-dihydrospiro[furo[2,3-g][1,4]benzodioxine-8,3′-indol]-2′(1′H)-one]	7.00 to 9.00	> 50
O=C1N(Cc2ccc(F)cc2Cl)c2ccccc2C12COc1cc3c(cc12)OCCO3 (stereo not drawn) [Example 7.22, 1′-(2-chloro-4-fluorobenzyl)-2,3-dihydrospiro[furo[2,3-g][1,4]benzodioxine-8,3′-indol]-2′(1′H)-one]	7.00 to 9.00	< 50
O=C1N(Cc2c(F)cccc2C(F)(F)F)c2ccccc2C12COc1cc3c(cc12)OCCO3 (stereo not drawn) [Example 7.25, 1′-[(2-fluoro-6-trifluoromethyl)benzyl]-2,3-dihydrospiro[furo[2,3-g][1,4]benzodioxine-8,3′-indol]-2′(1′H)-one]	7.00 to 9.00	< 50
O=C1N(Cc2cc(C(F)(F)F)ccc2F)c2ccccc2C12COc1cc3c(cc12)OCCO3 (stereo not drawn) [Example 7.26, 1′-[(2-fluoro-5-trifluoromethyl)benzyl]-2,3-dihydrospiro[furo[2,3-g][1,4]benzodioxine-8,3′-indol]-2′(1′H)-one]	7.00 to 9.00	< 50
O=C1N(Cc2ccccc2OC(F)(F)F)c2ccccc2C12COc1cc3c(cc12)OCCO3 (stereo not drawn) [Example 7.27, 1′-[(2-trifluoromethoxy)benzyl]-2,3-dihydrospiro[furo[2,3-g][1,4]benzodioxine-8,3′-indol]-2′(1′H)-one]	7.00 to 9.00	< 50
O=C1N(C[C@H]2CCCO2)c2c(F)cccc2C12COc1cc3c(cc12)CCO3 (stereo partly drawn) [Example 8.2, 7′-fluoro-1′-[(2R)-tetrahydrofuran-2-ylmethyl]-5,6-dihydrospiro[benzo[1,2-b:5,4-b′]difuran-3,3′-indol]-2′(1′H)-one]	7.00 to 9.00	< 50
COC(=O)c1ccccc1CN1C(=O)C2(COc3cc4c(cc32)CCO4)c2ccccc21 (stereo not drawn) [Example 9.14, methyl 2-[(2′-oxo-5,6-dihydrospiro[benzo[1,2-b:5,4-b′]difuran-3,3′-indol]-1′(2′H)-yl)methyl]benzoate]	7.00 to 9.00	< 50
COc1ccc2c(c1)OCC21C(=O)N(CC2CCOCC2)c2ccccc21 (stereo not drawn) [Example 9.35, 6-methoxy-1′-(tetrahydro-2H-pyran-4-ylmethyl)spiro[1-benzofuran-3,3′-indol]-2′(1′H)-one]	6.00 to 7.00	> 50

The next lines start with the values.

pIC50 (sodium channel)	inhibition at 10 µM (CYP3A4) [%]	SMILES
7.00 to 9.00	> 50	O=C1N(Cc2cncs2)c2ccccc2C12COc1cc3c(cc12)OCCO3 (stereo not drawn) [Example 7.11]
7.00 to 9.00	> 50	O=C1N(Cc2ncccc2C(F)(F)F)c2ccccc2C12COc1cc3c(cc12)OCCO3 (stereo not drawn) [Example 7.13]
5.00 to 6.00	> 50	CN(C)S(=O)(=O)c1cccc(CN2C(=O)C3(COc4cc5c(cc43)OCCO5)c3ccccc32)c1 (stereo not drawn) [Example 7.16, N,N-dimethyl-3-[(2′-oxo-2,3-dihydrospiro[furo[2,3-g][1,4]benzodioxine-8,3′-indol]-1′-(2′H)-yl)methyl]benzenesulfonamide]
7.00 to 9.00	> 50	O=C1N(Cc2ccc(F)cc2)c2ccccc2C12COc1cc3c(cc12)OCCO3 (stereo not drawn) [Example 7.21, 1′-(4-fluorobenzyl)-2,3-dihydrospiro[furo[2,3-g][1,4]benzodioxine-8,3′-indol]-2′(1′H)-one]
7.00 to 9.00	< 50	Cn1nnc2cc(CN3C(=O)C4(COc5cc6c(cc54)OCCO6)c4ccccc43)ccc21 (stereo not drawn) [Example 7.23, 1′-[(1-methyl-1H-benzotriazol-5-yl)methyl]-2,3-dihydrospiro[furo[2,3-g][1,4]-benzodioxine-8,3′-indol]-2′(1′H)-one]
7.00 to 9.00	> 50	O=C1N(Cc2cccc(OC(F)(F)F)c2)c2ccccc2C12COc1cc3c(cc12)OCCO3 (stereo not drawn) [Example 7.24, 1′-[(3-trifluoromethoxy)benzyl]-2,3-dihydrospiro[furo[2,3-g][1,4]benzodioxine-8,3′-indol]-2′(1′H)-one]
7.00 to 9.00	> 50	CC1(C)COC(C)(CCN2C(=O)C3(COc4cc5c(cc43)OCCO5)c3ccccc32)OC1 (stereo not drawn) [Example 7.28]
7.00 to 9.00	> 50	O=C1N(Cc2cncc(F)c2)c2ccccc2C12COc1cc3c(cc12)OCCO3 (stereo not drawn) [Example 8.18, 1′-[(5-fluoropyridin-3-yl)methyl]-2,3-dihydrospiro[furo[2,3-g][1,4]benzodioxine-8,3′-indol]-2′(1′H)-one]
5.00 to 6.00	< 50	COc1cc2c(cc1F)C1(CO2)C(=O)N(CC2CCOCC2)c2ccccc21 (stereo not drawn) [Example 9.29, 5-fluoro-6-methoxy-1-(tetrahydro-2H-pyran-4-ylmethyl)spiro[1-benzofuran-3,3′-indol]-2′(1′H)-one]
5.00 to 6.00	> 50	O=C1N(Cc2ccc(C(F)(F)F)o2)c2ccccc2C12COc1cc(F)c(F)cc12 (stereo not drawn) [Example 9.32, 5,6-difluoro-1′-{[5-(trifluoromethyl)furan-2-yl]methyl}spiro[1-benzofuran-3,3′-indol]-2′(1′H)-one]
